A word on the IC50: it is the concentration at which inhibition is half-maximal. For orientation: inhibition means the relative decrease from the control value, in per cent.

Data on three molecules can be found in article PMC5923399 (Marine Drugs, 2018).

Read-outs that look alike come from different tables or passages of the source. Where a SMILES comes first, the peptide text is derived from it. Bridges are numbered along the chain shown (N, C = ends). A value given as a limit tells only on which side of the number the result lay.

One assay has as its target T1, rat α3β2 nAChRs (Rattus norvegicus, UniProt P04757+P12390).
T1 construct: expressed in transfected cells; host or cells: Xenopus oocytes (cRNA injection)
Description: cell-based.

The target of another assay is T2, α2β2 nAChR (Rattus norvegicus, UniProt P12389+P12390).
T2 construct: expressed in transfected cells; host or cells: Xenopus oocytes (cRNA injection)
In words: cell-based.

The target in a further assay is T3, α2β4 nAChR (Rattus norvegicus, UniProt P12389+P12392).
T3 construct: expressed in transfected cells; host or cells: Xenopus oocytes (cRNA injection)
In words: cell-based.

A further assay deals with T4, α3β4 nAChR (Rattus norvegicus, UniProt P04757+P12392).
T4 construct: expressed in transfected cells; host or cells: Xenopus oocytes (cRNA injection)
In words: cell-based.

In the next assay the target is T5, α4β2 nAChR (Rattus norvegicus, UniProt P09483+P12390).
T5 construct: expressed in transfected cells; host or cells: Xenopus oocytes (cRNA injection)
Description: cell-based.

For a further assay, the target named is T6, α4β4 nAChR (Rattus norvegicus, UniProt P09483+P12392).
T6 construct: expressed in transfected cells; host or cells: Xenopus oocytes (cRNA injection)
Description: cell-based.

A further assay concerns the target T7, α7 nAChR (Rattus norvegicus, UniProt Q05941).
T7 construct: expressed in transfected cells; host or cells: Xenopus oocytes (cRNA injection)
In words: cell-based.

In assay [1] the target is T8, α9α10 nAChR (Rattus norvegicus, UniProt P43144+Q9JLB5).
T8 construct: expressed in transfected cells; host or cells: Xenopus oocytes (cRNA injection)
In words: cell-based.

The target of another assay is T9, GABABR-coupled Cav2.2 (Homo sapiens, UniProt O75899+Q9UBS5).
T9 construct: expressed in transfected cells; host or cells: HEK293T cells, transient transfection; GABAB subunit plasmids from David J. Adams, University of Wollongong
Description: cell-based. Also on record: species or system human GABABR and rat Cav2.2.

Assay [2] has as its target T8, α9α10 nAChR. The note with it: read-out: IC50 α9α10; cited from earlier work.

T9 sequence (Q9UBS5 15-961 limits assumed): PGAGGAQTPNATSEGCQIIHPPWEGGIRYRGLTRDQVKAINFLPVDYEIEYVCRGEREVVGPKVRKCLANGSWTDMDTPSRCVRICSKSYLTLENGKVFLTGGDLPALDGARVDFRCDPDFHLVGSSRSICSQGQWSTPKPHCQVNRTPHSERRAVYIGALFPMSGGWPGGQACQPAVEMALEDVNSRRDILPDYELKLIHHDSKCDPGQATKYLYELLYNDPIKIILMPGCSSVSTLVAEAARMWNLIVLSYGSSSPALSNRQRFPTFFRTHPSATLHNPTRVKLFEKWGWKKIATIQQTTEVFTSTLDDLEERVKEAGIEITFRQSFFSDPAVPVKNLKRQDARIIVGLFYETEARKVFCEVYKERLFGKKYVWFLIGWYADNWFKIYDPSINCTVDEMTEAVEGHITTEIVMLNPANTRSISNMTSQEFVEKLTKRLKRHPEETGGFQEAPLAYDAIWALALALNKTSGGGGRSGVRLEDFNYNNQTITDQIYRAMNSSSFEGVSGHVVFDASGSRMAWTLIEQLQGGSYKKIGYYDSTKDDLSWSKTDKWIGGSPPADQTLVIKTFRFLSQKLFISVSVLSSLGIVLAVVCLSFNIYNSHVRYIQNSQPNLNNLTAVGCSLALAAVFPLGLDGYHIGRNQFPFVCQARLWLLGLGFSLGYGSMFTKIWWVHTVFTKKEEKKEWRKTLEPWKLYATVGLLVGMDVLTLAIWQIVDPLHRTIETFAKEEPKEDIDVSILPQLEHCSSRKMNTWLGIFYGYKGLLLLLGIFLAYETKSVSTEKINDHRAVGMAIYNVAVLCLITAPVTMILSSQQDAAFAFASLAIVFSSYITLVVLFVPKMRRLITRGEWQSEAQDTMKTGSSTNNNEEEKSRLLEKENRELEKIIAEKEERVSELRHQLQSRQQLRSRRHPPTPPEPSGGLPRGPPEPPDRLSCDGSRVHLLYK
T9 sequence (O75899 42-941): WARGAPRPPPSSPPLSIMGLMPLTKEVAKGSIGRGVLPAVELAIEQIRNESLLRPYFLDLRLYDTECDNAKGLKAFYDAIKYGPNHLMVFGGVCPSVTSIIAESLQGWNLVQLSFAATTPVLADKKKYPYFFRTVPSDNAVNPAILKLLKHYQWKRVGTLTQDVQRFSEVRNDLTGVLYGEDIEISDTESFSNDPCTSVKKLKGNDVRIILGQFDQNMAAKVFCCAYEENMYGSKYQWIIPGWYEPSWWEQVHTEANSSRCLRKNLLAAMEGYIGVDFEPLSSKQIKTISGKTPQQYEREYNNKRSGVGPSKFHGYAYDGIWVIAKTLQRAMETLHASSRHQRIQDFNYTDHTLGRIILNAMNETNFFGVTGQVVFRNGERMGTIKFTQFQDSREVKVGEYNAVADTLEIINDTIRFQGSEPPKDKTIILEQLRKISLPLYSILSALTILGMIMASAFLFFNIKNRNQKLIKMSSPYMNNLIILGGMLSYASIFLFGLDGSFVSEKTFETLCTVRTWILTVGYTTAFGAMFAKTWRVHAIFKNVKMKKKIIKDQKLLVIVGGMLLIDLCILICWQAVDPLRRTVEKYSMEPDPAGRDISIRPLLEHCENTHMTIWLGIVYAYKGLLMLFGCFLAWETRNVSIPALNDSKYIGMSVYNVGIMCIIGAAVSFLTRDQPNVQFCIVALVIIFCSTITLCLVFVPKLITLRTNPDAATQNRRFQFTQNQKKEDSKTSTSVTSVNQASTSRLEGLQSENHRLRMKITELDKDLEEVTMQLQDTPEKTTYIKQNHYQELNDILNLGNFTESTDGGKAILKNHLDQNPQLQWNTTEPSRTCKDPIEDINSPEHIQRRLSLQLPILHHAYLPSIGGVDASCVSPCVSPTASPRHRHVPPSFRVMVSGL
T1 sequence (P04757 26-499 limits assumed): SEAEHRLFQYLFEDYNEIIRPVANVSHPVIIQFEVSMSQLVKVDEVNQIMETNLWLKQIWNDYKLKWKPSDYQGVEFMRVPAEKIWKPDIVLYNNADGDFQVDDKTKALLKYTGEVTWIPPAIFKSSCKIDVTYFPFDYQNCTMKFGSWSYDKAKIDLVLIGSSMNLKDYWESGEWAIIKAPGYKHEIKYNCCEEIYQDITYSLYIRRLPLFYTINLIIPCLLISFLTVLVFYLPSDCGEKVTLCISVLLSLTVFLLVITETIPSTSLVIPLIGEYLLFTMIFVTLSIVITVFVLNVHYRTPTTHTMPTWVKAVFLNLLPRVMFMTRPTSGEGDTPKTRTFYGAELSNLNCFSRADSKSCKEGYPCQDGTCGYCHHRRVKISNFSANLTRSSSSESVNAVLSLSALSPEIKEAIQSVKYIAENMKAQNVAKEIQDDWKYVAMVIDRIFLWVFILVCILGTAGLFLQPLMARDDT
T1 sequence (P12390 25-500 limits assumed): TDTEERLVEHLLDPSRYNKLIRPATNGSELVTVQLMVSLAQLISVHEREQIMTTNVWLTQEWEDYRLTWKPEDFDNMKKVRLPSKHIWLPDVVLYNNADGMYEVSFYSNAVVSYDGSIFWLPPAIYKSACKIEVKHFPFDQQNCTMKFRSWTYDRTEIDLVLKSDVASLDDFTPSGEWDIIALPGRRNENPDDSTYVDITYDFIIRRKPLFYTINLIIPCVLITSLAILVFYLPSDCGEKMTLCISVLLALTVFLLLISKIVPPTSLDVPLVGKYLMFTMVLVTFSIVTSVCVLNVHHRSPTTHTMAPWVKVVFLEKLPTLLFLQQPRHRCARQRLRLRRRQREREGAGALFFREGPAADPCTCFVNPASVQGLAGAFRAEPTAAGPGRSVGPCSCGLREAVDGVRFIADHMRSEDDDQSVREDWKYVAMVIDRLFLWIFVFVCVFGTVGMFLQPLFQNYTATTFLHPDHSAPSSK
T8 sequence (P43144 26-479 limits assumed): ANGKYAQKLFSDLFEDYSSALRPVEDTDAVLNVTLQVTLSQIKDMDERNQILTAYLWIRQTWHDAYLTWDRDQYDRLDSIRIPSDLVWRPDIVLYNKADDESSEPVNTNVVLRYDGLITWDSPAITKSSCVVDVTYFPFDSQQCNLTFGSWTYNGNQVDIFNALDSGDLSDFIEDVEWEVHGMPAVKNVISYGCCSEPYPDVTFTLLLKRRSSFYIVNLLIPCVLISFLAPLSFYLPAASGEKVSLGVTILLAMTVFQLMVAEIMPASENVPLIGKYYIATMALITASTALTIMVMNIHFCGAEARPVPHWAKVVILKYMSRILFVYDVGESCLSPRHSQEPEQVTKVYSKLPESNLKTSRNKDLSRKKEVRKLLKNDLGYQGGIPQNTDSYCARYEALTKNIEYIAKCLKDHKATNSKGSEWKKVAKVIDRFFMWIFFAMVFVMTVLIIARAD
T8 sequence (Q9JLB5 25-447 limits assumed): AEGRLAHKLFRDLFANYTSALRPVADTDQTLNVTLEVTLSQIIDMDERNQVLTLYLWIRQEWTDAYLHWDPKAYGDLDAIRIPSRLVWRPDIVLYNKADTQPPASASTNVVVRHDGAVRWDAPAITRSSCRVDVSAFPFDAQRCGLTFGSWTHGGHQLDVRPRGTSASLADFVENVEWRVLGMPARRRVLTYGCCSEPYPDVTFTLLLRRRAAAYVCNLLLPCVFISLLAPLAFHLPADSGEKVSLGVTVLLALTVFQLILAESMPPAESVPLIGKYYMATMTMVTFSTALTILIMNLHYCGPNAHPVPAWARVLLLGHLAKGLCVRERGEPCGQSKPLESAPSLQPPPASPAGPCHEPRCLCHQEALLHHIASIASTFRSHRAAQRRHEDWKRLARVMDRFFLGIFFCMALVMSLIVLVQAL
T6 sequence (P09483 31-630 limits assumed): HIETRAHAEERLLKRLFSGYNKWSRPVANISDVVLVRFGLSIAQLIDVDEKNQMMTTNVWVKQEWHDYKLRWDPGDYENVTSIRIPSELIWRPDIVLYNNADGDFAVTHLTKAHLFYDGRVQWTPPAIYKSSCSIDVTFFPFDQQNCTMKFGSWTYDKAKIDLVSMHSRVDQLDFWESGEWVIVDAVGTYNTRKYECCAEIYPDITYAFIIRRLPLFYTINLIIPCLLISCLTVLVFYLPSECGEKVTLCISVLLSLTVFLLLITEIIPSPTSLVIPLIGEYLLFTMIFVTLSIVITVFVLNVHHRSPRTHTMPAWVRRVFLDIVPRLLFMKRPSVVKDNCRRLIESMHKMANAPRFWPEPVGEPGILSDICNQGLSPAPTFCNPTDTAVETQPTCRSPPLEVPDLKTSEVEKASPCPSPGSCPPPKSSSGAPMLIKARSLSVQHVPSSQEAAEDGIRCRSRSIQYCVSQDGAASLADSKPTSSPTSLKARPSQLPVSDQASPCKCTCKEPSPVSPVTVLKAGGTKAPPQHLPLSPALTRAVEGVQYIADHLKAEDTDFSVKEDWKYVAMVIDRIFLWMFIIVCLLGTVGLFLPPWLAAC
T6 sequence (P12392 21-495 limits assumed): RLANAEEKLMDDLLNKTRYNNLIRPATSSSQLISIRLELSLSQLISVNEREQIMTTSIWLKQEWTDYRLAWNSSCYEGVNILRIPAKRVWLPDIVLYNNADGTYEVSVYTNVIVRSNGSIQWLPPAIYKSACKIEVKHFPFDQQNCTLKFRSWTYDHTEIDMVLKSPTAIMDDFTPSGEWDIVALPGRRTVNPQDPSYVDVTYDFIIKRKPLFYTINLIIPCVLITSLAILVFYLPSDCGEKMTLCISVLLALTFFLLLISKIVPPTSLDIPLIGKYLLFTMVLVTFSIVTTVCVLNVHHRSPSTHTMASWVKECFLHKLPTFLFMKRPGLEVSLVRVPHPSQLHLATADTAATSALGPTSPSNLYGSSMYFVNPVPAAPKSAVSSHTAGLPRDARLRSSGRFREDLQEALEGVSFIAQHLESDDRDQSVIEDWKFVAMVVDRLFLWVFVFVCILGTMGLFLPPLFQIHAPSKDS
T5 sequence (P09483 31-630 limits assumed): as the sequence (P09483 31-630 limits assumed) above
T5 sequence (P12390 25-500 limits assumed): as the sequence (P12390 25-500 limits assumed) above
T4 sequence (P04757 26-499 limits assumed): as the sequence (P04757 26-499 limits assumed) above
T4 sequence (P12392 21-495 limits assumed): as the sequence (P12392 21-495 limits assumed) above

In the case of `C[C@@H]1NC(=O)[C@@H]2CCCN2C(=O)[C@H](Cc2c[nH]cn2)NC(=O)[C@H](CO)NC(=O)[C@@H]2CSSC[C@@H](C(N)=O)NC(=O)[C@H](Cc3ccccc3)NC(=O)[C@H](Cc3ccc(O)cc3)NC(=O)[C@@H]3CCCN3C(=O)[C@H](CC(N)=O)NC(=O)[C@H](CC(N)=O)NC(=O)CNC(=O)[C@H](CO)NC(=O)[C@H](CSSC[C@H](NC(=O)CN)C(=O)N2)NC1=O` [Lt1.3-II] (H-GCCSHPACSGNNPYFC-NH2; disulfide 2-8, 3-16), the IC50 was 0.0448 µM at rat α3β2 nAChRs; greater than 10 µM against α2β2 nAChR; greater than 10 µM at α2β4 nAChR; greater than 10 µM against α3β4 nAChR; greater than 10 µM at α4β2 nAChR; greater than 10 µM against α4β4 nAChR. For the same molecule, the IC50 against α7 nAChR, at α9α10 nAChR [1] and at GABABR-coupled Cav2.2 was greater than 10 µM throughout. At rat α3β2 nAChRs, the “selectivity index (SI)” value was greater than 200. Further, the inhibition at 10 µM on GABABR-coupled Cav2.2 (HEK-293T, read-out: inhibition of peak current amplitude, SEM) worked out at 3.2 ± 1.8%.
As to `CC[C@H](C)[C@@H]1NC(=O)[C@H](Cc2cnc[nH]2)NC(=O)[C@@H]2CCCN2C(=O)[C@H](CC(N)=O)NC(=O)[C@H](CC(N)=O)NC(=O)[C@H](C(C)C)NC(=O)[C@H](CC(N)=O)NC(=O)[C@@H]2CSSC[C@H](NC(=O)CN)C(=O)N[C@@H](CSSC[C@@H](C(N)=O)NC1=O)C(=O)N[C@@H](CO)C(=O)N[C@@H](Cc1cnc[nH]1)C(=O)N1CCC[C@H]1C(=O)N[C@@H](C)C(=O)N2` [RegIIA, reference compound] (H-GCCSHPACNVNNPHIC-NH2; disulfide 2-8, 3-16), the figures for the IC50 on rat α3β2 nAChRs and at α9α10 nAChR [2] were 0.0345 µM and greater than 1 µM, respectively.
Consider `CC[C@H](C)[C@@H]1NC(=O)[C@H](CCC(=O)O)NC(=O)[C@@H]2CCCN2C(=O)[C@H](Cc2cnc[nH]2)NC(=O)[C@H](CC(=O)O)NC(=O)[C@H](Cc2ccc(O)cc2)NC(=O)[C@H](CC(N)=O)NC(=O)[C@@H]2CSSC[C@H](NC(=O)CN)C(=O)N[C@@H](CSSC[C@@H](C(N)=O)NC1=O)C(=O)N[C@@H](CO)C(=O)N[C@@H](CC(=O)O)C(=O)N1CCC[C@H]1C(=O)N[C@@H](CCCNC(=N)N)C(=O)N2` [Vc1.1, reference compound], for which half-maximal inhibition on GABABR-coupled Cav2.2 (IC50) required 0.0024 µM.
